Converted amounts (≈) assume the structure as drawn. Like-named read-outs stand apart in the source and are kept apart here.
Tests used:
Serratia marcescens SE3 = test: MIC by standard agar dilution test; assay type: cell-based
Erwinia amylovora = test: MIC by standard agar dilution test; assay type: cell-based; conditions: Table II, read-out: Minimum Inhibitory Concentration
Source text: (§1) The antibacterial activity of the antibiotic compounds of this invention is illustrated by the following in vitro and in vivo test data obtained with representative compounds. In Tables I and II the minimum inhibitory concentration (MIC) for representative compounds against a wide range of gram-positive and gram-negative bacteria is presented. The MIC values were obtained by the standard agar dilution test.

[1] = tested on: Staphylococcus aureus 3074; test: MIC by standard agar dilution test; assay type: cell-based; conditions: Table II, read-out: Minimum Inhibitory Concentration
Source text: as §1

Salmonella typhosa SA12 = test: MIC by standard agar dilution test; assay type: cell-based; conditions: Salmonella enterica, read-out: Minimum Inhibitory Concentration
Escherichia coli EC14 = test: MIC by standard agar dilution test; assay type: cell-based; conditions: EC14, read-out: Minimum Inhibitory Concentration
[2] = tested on: Pseudomonas aeruginosa Ps15; test: MIC by standard agar dilution test; assay type: cell-based; conditions: PS15, read-out: Minimum Inhibitory Concentration
Serratia marcescens X99 = test: MIC by standard agar dilution test; assay type: cell-based; conditions: X99, Table 1, agar dilution, read-out: Minimum Inhibitory Concentration
[3] = tested on: Pseudomonas aeruginosa X48; test: MIC by standard agar dilution test; assay type: cell-based; conditions: X48, read-out: Minimum Inhibitory Concentration
[4] = tested on: Staphylococcus aureus 3055; test: MIC by standard agar dilution test; assay type: cell-based; conditions: Staphylococcus aureus, 3055, read-out: Minimum Inhibitory Concentration
[5] = tested on: Pseudomonas aeruginosa SF-2; test: MIC by standard agar dilution test; assay type: cell-based; conditions: SF2, read-out: Minimum Inhibitory Concentration
[6] = tested on: Pseudomonas aeruginosa PI23; test: MIC by standard agar dilution test; assay type: cell-based; conditions: PI23, read-out: Minimum Inhibitory Concentration
[7] = tested on: Pseudomonas aeruginosa X239; test: MIC by standard agar dilution test; assay type: cell-based; conditions: X239, read-out: Minimum Inhibitory Concentration, Table 1
Proteus morganii PR1 = test: MIC by standard agar dilution test; assay type: cell-based; conditions: Morganella morganii, PR1, read-out: Minimum Inhibitory Concentration
[8] = tested on: Pseudomonas aeruginosa X239; test: Subcutaneous therapy of Pseudomonas aeruginosa X239 infections in mice; assay type: in vivo; conditions: X239, sc, 2 subcutaneous doses at 1 and 5 hours post infection, dose to protect 50 percent of test animals, read-out: Effective Dose (ED50)
Experimental: Table III illustrates the effective dose (ED50, effective dose to protect 50 percent of the test animals) for representative compounds of this invention against an experimental bacterial infection in mice. | *mg/kg × 2 subcutaneous doses at 1 and 5 hours post infections The ED50 values were determined as described by W. E. Wick et al., Journal of Bacteriolocy, 81 [No. 2], 233-235 (1961).

Proteus inconstans PV25 = test: MIC by standard agar dilution test; assay type: cell-based; conditions: Providencia alcalifaciens, PV25; Table 1; agar dilution; read-out: Minimum Inhibitory Concentration
[9] = tested on: Pseudomonas solanacearum X185; test: microbe, parasite or virus in culture; assay type: cell-based; conditions: Ralstonia solanacearum, X185, read-out: Minimum Inhibitory Concentration
[10] = tested on: Citrobacter freundii CF17; test: MIC by standard agar dilution test; assay type: cell-based; conditions: CF17, Table II, agar dilution, read-out: Minimum Inhibitory Concentration
[11] = tested on: Enterobacter cloacae EB24; test: MIC by standard agar dilution test; assay type: cell-based; conditions: EB24, Table 1, agar dilution, read-out: Minimum Inhibitory Concentration
[12] = tested on: Pseudomonas aeruginosa Ps9; test: MIC by standard agar dilution test; assay type: cell-based; conditions: PS9, read-out: Minimum Inhibitory Concentration
Salmonella typhimurium = test: MIC by standard agar dilution test; assay type: cell-based; conditions: Salmonella enterica, Table II, agar dilution, read-out: Minimum Inhibitory Concentration
[13] = tested on: Enterobacter cloacae EN453; test: MIC by standard agar dilution test; assay type: cell-based; conditions: EN453, Table 1, agar dilution, read-out: Minimum Inhibitory Concentration
[14] = tested on: Pseudomonas aeruginosa Ps25; test: MIC by standard agar dilution test; assay type: cell-based; conditions: PS25, read-out: Minimum Inhibitory Concentration
[15] = tested on: Klebsiella pneumoniae KL14; test: MIC by standard agar dilution test; assay type: cell-based; conditions: KL14, Table II, agar dilution, read-out: Minimum Inhibitory Concentration
[16] = tested on: Pseudomonas aeruginosa X528; test: MIC by standard agar dilution test; assay type: cell-based; conditions: X528, read-out: Minimum Inhibitory Concentration
[17] = tested on: Klebsiella pneumoniae KL2; test: MIC by standard agar dilution test; assay type: cell-based; conditions: KL2, Table 1, agar dilution, read-out: Minimum Inhibitory Concentration
Serratia marcescens SE2 = test: MIC by standard agar dilution test; assay type: cell-based; conditions: SE2, Table 1, agar dilution, read-out: Minimum Inhibitory Concentration
[18] = tested on: Streptococcus faecalis X66; test: MIC by standard agar dilution test; assay type: cell-based; conditions: Enterococcus faecalis, X66, read-out: Minimum Inhibitory Concentration
[19] = tested on: Pseudomonas aeruginosa 4276; test: MIC by standard agar dilution test; assay type: cell-based; conditions: Pseudomonas aeruginosa, 4276, read-out: Minimum Inhibitory Concentration
Proteus morganii PR2 = test: MIC by standard agar dilution test; assay type: cell-based; conditions: Morganella morganii, PR2; Table 1; agar dilution; read-out: Minimum Inhibitory Concentration
[20] = tested on: Bordetella bronchiseptica 16; test: MIC by standard agar dilution test; assay type: cell-based; conditions: Bordetella bronchiseptica, 16, read-out: Minimum Inhibitory Concentration
[21] = tested on: Enterobacter aerogenes EB17; test: MIC by standard agar dilution test; assay type: cell-based; conditions: Klebsiella aerogenes, EB17; Table II; agar dilution; read-out: Minimum Inhibitory Concentration
Proteus morganii PR15 = test: MIC by standard agar dilution test; assay type: cell-based; conditions: Morganella morganii, PR15, read-out: Minimum Inhibitory Concentration
[22] = tested on: Enterobacter aerogenes EB6; test: MIC by standard agar dilution test; assay type: cell-based; conditions: Klebsiella aerogenes, EB6, read-out: Minimum Inhibitory Concentration

CN[C@@H]1[C@@H](O[C@H]2O[C@H](CN)[C@@H](N)[C@H](O)[C@H]2O)O[C@H]2C[C@@H](N)[C@@H](O[C@H]3[C@H](O)[C@@H](O)[C@H](N)C[C@@H]3N)O[C@@H]2[C@@H]1O [Test Compound 5, 6"-Amino-6"-Deoxyapramycin]
MIC (Serratia marcescens SE3; SE3, Table 1, read-out: Minimum Inhibitory Concentration): 8 µg/mL (≈ 14.9 µM) | MIC (Serratia marcescens SE3; SE3, read-out: Minimum Inhibitory Concentration, Table II): 16 µg/mL (≈ 29.7 µM) | MIC (Erwinia amylovora): 4 µg/mL (≈ 7.43 µM) | MIC [1]: 4 µg/mL (≈ 7.43 µM) | MIC (Salmonella typhosa SA12): 16 µg/mL (≈ 29.7 µM) | MIC (Escherichia coli EC14): 16 µg/mL (≈ 29.7 µM) | MIC [2]: 32 µg/mL (≈ 59.4 µM) | MIC (Serratia marcescens X99): 8 µg/mL (≈ 14.9 µM) | MIC [3]: 32 µg/mL (≈ 59.4 µM) | MIC [4]: 1 µg/mL (≈ 1.86 µM) | MIC [5]: 32 µg/mL (≈ 59.4 µM) | MIC [6]: > 128 µg/mL | MIC [7]: 32 µg/mL (≈ 59.4 µM) | MIC (Proteus morganii PR1): 16 µg/mL (≈ 29.7 µM) | ED50 [8]: 15 mg/kg | MIC (Proteus inconstans PV25): 8 µg/mL (≈ 14.9 µM) | MIC [9]: 4 µg/mL (≈ 7.43 µM) | MIC [10]: 8 µg/mL (≈ 14.9 µM) | MIC [11]: 8 µg/mL (≈ 14.9 µM) | MIC [12]: 128 µg/mL (≈ 238 µM) | MIC (Salmonella typhimurium): 8 µg/mL (≈ 14.9 µM) | MIC [13]: 8 µg/mL (≈ 14.9 µM) | MIC [14]: 32 µg/mL (≈ 59.4 µM) | MIC [15]: 8 µg/mL (≈ 14.9 µM) | MIC [16]: 64 µg/mL (≈ 119 µM) | MIC [17]: 8 µg/mL (≈ 14.9 µM) | MIC (Serratia marcescens SE2): 8 µg/mL (≈ 14.9 µM) | MIC [18]: 32 µg/mL (≈ 59.4 µM) | MIC [19]: 64 µg/mL (≈ 119 µM) | MIC (Proteus morganii PR2): 8 µg/mL (≈ 14.9 µM) | MIC [20]: 32 µg/mL (≈ 59.4 µM) | MIC [21]: 8 µg/mL (≈ 14.9 µM) | MIC (Proteus morganii PR15): 32 µg/mL (≈ 59.4 µM) | MIC [22]: 16 µg/mL (≈ 29.7 µM)

From US4379917A, “6"-(Substituted)-apramycin antibiotic derivatives and intermediates and starting materials therefor” (Eli Lilly and Company, priority 1981, dated 1983)
